According to US6613352B2, “Low-rigidity liposomal formulation” (Universite de Montreal, priority 1999, dated 2003):

Tested on: Xanthomonas maltophilia
Assay: In vitro bactericidal activity, viable bacterial counts in proteose peptone
Assay type: cell-based
Details: free tobramycin 3,12 μg/ml, entrapped tobramycin 3,08 μg/ml, MIC >5 μg/ml
Experimental: To culture tubes containing proteose peptone (29 ml) a minimal number of 10^8 CFU of bacteria in logarithmic phase (1 ml) and of one of the following preparations (100 μl) were added at time zero: free tobramycin, control liposomes or PBS. Experiments were done in triplicate. At times 1, 3, 6, and 16 hours following the addition of antibiotic or controls, 2 ml of samples were collected and serial 10-fold dilutions were made and spread in triplicate on proteose peptone agar plates for gram negative strains and on […] for S. aureus. CFU were counted after 24-hour and 48-hourS incubations at 37° C. under 5% CO2. Counts were expressed in log CFU per ml of culture media.

Q: Which Viable bacterial counts (0 h) does the source give for `NC[C@H]1O[C@H](O[C@H]2[C@H](O)[C@@H](O[C@H]3O[C@H](CO)[C@@H](O)[C@H](N)[C@H]3O)[C@H](N)C[C@@H]2N)[C@H](N)C[C@@H]1O` [Free tobramycin, tobramycin] here?
A: The Viable bacterial counts was 3.7 × 10^10 cfu.

Q: And the Viable bacterial counts (1 h)?
A: Its Viable bacterial counts is 3.00 × 10^12 cfu.

Q: What about the Viable bacterial counts (3 h) of the same compound?
A: Its Viable bacterial counts is 8.20 × 10^14 cfu.

Q: And the Viable bacterial counts (6 h)?
A: Its Viable bacterial counts is 7.80 × 10^16 cfu.
